This passage reports EC50 results from BindingDB's records for doi:10.7270/Q2H70D87 (Nmmlsc, 2011).

The target in this assay is 60S ribosomal protein L19-A (Saccharomyces cerevisiae (strain ATCC 204508 / S288c), UniProt P0CX82). The assay is described as follows: RPL19A-GFP expression changes in yeast, dose response, cell-based, cherry pick 3, SAR, flow cytometry GFP, multiplex (AID 488814). Particulars: inactive by the depositor's call.
Chain of 60S ribosomal protein L19-A (P0CX82 whole entry): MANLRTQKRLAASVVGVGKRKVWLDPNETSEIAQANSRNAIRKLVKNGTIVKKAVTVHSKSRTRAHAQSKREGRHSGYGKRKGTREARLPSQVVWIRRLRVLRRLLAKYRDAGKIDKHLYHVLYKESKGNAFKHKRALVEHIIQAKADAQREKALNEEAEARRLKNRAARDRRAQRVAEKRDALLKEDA

Turning to `Cc1ccc(C(=O)Nc2nc(-c3ccccn3)cs2)o1` [5-methyl-N-[4-(2-pyridinyl)-2-thiazolyl]-2-furancarboxamide], the EC50 – broadly, the concentration that produces a half-maximal response – amounted to 38.2 µM. This lies in the double-digit micromolar range.

`CCOC(=O)CS(=O)(=O)c1nc(-c2ccccc2)cc(C(F)(F)F)n1` [2-[4-phenyl-6-(trifluoromethyl)pyrimidin-2-yl]sulfonylacetic acid ethyl ester] had an EC50 of 55.7 µM.
